Experimental data taken from the kinase profiling compilation of Christmann-Franck et al. (2016).

Key:
Assay in all cases: radiometric filter-binding kinase assay, Kinase HotSpot
Settings in all cases: compound 0.5 µM; ATP 10 µM
SYK (human) = SYK (human) (UniProt P43405)
BMX (human) = BMX (human) (UniProt P51813)
MAPK12 (human) = MAPK12 (human) (UniProt P53778)
FGFR2 (human) = FGFR2 (human) (UniProt P21802)
SRC (human) = SRC (human) (UniProt P12931)
TSSK2 (human) = TSSK2 (human) (UniProt Q96PF2)
SRPK3 (human) = SRPK3 (human) (UniProt Q9UPE1)
SRPK3 (human), sequence (Q9UPE1 whole entry, looked up): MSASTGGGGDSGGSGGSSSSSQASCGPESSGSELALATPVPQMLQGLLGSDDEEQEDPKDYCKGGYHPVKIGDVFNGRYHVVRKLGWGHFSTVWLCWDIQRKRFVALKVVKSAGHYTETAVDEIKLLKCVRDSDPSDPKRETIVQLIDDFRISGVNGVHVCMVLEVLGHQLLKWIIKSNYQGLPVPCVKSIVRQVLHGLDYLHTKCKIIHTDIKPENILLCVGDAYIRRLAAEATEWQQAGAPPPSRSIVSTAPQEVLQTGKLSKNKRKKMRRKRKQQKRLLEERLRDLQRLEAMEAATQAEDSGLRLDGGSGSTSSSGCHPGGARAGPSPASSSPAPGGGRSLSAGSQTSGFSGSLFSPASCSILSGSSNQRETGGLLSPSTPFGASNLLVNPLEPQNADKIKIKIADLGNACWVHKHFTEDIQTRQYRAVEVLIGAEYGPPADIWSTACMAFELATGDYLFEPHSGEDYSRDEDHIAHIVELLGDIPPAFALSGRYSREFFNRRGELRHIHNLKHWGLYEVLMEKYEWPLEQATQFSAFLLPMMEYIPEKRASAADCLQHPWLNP

BLK (human) = BLK (human) (UniProt P51451)
VRK1 (human) = VRK1 (human) (UniProt Q99986)
MAPK8 (human) = MAPK8 (human) (UniProt P45983)
DDR2 (human) = DDR2 (human) (UniProt Q16832)
DMPK (human) = DMPK (human) (UniProt Q09013)
NEK2 (human) = NEK2 (human) (UniProt P51955)
PLK2 (human) = PLK2 (human) (UniProt Q9NYY3)
HCK (human) = HCK (human) (UniProt P08631)
IRAK1 (human) = IRAK1 (human) (UniProt P51617)
IRAK1 (human), sequence (P51617 whole entry, looked up): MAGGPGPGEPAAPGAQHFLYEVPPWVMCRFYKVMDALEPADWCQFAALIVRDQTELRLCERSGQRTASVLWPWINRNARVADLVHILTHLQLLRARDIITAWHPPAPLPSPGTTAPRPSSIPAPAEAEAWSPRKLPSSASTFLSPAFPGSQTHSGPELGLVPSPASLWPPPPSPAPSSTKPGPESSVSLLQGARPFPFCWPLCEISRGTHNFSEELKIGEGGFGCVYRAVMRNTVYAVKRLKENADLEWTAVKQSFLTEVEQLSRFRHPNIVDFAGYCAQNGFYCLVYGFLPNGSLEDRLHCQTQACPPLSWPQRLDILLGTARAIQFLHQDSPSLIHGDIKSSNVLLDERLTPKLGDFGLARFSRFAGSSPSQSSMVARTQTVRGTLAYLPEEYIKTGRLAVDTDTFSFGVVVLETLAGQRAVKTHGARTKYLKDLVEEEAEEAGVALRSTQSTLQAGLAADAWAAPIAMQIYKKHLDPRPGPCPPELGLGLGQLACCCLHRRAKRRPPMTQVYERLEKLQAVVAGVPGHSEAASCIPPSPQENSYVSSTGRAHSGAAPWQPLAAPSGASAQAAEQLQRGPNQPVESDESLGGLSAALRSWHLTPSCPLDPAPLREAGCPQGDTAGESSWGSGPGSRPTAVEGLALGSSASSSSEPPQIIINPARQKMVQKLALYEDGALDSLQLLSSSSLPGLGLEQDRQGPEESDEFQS

PRKD2 (human) = PRKD2 (human) (UniProt Q9BZL6)
PTK6 (human) = PTK6 (human) (UniProt Q13882)
PTK6 (human), sequence (Q13882 whole entry, looked up): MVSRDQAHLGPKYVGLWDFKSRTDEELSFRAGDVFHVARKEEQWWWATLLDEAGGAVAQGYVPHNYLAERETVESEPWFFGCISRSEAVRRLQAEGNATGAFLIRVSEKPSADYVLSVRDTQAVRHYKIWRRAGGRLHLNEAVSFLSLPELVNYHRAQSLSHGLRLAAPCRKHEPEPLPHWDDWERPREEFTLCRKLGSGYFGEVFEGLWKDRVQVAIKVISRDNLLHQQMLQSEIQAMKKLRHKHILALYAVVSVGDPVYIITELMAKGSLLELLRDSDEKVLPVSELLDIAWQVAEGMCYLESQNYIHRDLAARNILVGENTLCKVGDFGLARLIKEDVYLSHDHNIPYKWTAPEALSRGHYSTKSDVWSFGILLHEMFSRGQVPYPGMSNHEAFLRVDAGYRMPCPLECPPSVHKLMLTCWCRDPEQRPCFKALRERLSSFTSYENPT

NUAK2 (human) = NUAK2 (human) (UniProt Q9H093)
HIPK3 (human) = HIPK3 (human) (UniProt Q9H422)
CDK4 CCND3 (human) = CDK4 CCND3 (human) (UniProt P30281+P11802)
CDK4 CCND3 (human), sequence (P11802 whole entry, looked up): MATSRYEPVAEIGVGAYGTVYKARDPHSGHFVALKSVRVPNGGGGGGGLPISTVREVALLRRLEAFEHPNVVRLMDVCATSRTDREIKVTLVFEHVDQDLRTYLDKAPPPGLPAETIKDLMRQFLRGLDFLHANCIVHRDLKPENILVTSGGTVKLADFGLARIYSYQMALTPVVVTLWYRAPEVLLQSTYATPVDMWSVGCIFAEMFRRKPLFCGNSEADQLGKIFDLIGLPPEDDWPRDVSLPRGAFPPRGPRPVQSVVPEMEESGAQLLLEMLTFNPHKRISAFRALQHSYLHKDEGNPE
CDK4 CCND3 (human), sequence (P30281 whole entry, looked up): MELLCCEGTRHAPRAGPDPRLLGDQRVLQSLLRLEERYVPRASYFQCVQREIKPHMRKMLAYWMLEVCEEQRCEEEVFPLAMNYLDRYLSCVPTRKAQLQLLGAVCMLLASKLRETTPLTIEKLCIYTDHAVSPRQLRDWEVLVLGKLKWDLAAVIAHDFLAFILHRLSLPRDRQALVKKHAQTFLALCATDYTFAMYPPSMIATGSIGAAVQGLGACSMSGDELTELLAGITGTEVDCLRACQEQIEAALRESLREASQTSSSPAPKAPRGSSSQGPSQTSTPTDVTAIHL

BTK (human) = BTK (human) (UniProt Q06187)
PRKCD (human) = PRKCD (human) (UniProt Q05655)
FGFR4 (human) = FGFR4 (human) (UniProt P22455)
MKNK2 (human) = MKNK2 (human) (UniProt Q9HBH9)
CDK4 CCND1 (human) = CDK4 CCND1 (human) (UniProt P24385+P11802)
CDK4 CCND1 (human), sequence (P11802 whole entry, looked up): as the sequence (P11802 whole entry, looked up) above
CDK4 CCND1 (human), sequence (P24385 whole entry, looked up): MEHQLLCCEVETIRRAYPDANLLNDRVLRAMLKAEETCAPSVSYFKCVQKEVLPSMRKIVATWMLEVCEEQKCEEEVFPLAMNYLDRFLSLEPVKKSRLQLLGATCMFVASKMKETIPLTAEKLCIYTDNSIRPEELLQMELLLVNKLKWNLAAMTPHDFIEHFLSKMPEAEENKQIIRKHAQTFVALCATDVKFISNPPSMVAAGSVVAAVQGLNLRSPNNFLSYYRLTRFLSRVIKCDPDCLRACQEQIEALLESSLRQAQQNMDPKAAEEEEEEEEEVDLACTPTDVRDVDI

MAPK9 (human) = MAPK9 (human) (UniProt P45984)
MAPK9 (human), sequence (P45984 whole entry, looked up): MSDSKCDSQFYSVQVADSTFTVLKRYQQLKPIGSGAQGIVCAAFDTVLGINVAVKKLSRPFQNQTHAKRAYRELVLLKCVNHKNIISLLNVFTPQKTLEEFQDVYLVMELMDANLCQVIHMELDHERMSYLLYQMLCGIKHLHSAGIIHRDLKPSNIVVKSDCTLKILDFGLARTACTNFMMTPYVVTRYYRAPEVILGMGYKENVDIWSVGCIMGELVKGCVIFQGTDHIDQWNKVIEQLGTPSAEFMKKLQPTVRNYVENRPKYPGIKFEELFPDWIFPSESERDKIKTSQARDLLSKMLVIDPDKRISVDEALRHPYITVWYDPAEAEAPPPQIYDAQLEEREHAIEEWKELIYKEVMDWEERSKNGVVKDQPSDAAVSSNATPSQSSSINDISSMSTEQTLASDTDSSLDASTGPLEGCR

STK10 (human) = STK10 (human) (UniProt O94804)
PRKCB2 (human) = PRKCB2 (human) (UniProt P05771)
MYLK2 (human) = MYLK2 (human) (UniProt Q9H1R3)
DCLK2 (human) = DCLK2 (human) (UniProt Q8N568)
STK3 (human) = STK3 (human) (UniProt Q13188)
STK3 (human), sequence (Q13188 whole entry, looked up): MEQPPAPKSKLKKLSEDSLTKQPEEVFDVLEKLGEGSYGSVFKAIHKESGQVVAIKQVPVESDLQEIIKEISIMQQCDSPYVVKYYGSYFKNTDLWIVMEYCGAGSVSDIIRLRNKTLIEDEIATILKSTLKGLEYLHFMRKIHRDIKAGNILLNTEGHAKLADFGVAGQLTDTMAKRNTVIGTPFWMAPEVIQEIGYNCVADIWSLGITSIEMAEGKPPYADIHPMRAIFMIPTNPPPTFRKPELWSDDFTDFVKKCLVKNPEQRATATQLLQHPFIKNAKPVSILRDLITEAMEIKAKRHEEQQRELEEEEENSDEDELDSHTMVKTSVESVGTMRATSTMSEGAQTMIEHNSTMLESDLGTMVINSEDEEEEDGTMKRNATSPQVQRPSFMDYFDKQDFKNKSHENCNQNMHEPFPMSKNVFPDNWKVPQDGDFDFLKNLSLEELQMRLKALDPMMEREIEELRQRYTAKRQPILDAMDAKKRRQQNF

IGF1R (human) = IGF1R (human) (UniProt P08069)
CSNK1E (human) = CSNK1E (human) (UniProt P49674)
ITK (human) = ITK (human) (UniProt Q08881)
AKT2 (human) = AKT2 (human) (UniProt P31751)
AKT2 (human), sequence (P31751 whole entry, looked up): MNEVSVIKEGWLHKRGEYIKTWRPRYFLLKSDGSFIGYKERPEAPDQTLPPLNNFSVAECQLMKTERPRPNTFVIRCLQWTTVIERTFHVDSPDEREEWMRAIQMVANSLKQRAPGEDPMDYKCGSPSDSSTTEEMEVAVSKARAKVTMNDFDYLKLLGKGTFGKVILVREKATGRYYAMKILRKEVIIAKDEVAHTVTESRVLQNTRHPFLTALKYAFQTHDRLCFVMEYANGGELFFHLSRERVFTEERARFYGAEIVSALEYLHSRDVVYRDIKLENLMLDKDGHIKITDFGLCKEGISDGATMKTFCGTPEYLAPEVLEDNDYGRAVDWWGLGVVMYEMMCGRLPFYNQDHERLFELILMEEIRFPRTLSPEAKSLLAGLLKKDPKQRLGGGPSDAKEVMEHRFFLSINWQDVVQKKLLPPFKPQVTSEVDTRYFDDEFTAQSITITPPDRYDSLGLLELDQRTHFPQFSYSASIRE

EPHB1 (human) = EPHB1 (human) (UniProt P54762)
MAPKAPK2 (human) = MAPKAPK2 (human) (UniProt P49137)
TAOK2 (human) = TAOK2 (human) (UniProt Q9UL54)
CDK7 CCNH MNAT1 (human) = CDK7 CCNH MNAT1 (human) (UniProt P50613+P51948+P51946)
EPHA8 (human) = EPHA8 (human) (UniProt P29322)
STK24 (human) = STK24 (human) (UniProt Q9Y6E0)

BMX (human), sequence (P51813 whole entry, looked up): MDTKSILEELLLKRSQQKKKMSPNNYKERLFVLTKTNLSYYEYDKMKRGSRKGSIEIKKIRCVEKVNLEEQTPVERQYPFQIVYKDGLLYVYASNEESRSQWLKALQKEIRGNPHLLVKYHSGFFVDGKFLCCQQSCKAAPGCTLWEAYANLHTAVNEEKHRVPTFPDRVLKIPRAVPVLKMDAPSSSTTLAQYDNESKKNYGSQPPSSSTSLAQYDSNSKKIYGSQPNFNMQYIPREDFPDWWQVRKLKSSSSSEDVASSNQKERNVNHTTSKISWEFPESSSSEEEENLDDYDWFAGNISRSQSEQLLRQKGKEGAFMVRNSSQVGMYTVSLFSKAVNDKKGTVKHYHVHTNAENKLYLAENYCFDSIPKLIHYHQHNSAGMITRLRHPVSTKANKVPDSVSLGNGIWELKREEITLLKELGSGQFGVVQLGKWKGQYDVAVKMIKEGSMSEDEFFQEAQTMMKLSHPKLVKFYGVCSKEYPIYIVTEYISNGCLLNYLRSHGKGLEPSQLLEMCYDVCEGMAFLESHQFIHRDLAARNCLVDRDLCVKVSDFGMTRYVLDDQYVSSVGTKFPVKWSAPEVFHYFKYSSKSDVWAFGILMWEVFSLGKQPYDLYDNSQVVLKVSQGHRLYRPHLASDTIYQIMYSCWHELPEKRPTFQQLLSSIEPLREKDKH

Compound `O=C(O)c1ccc2c3c1cccc3c(=O)n1c3ccccc3nc21` has a residual activity (SYK (human)) of 96%, a residual activity (BMX (human)) of 96.4% and a residual activity (MAPK12 (human)) of 103%. The residual activity (FGFR2 (human)) was 100%, the residual activity (SRC (human)) was 96.3% and the residual activity (TSSK2 (human)) was 106%. For the same compound, the residual activity (SRPK3 (human)) was 82.8%, the residual activity (BLK (human)) was 100% and the residual activity (VRK1 (human)) was 103%. For the same compound, the residual activity (MAPK8 (human)) was 98%, the residual activity (DDR2 (human)) was 96.8% and the residual activity (DMPK (human)) was 98.9%. The residual activity (NEK2 (human)) was 109%, the residual activity (PLK2 (human)) was 97% and the residual activity (HCK (human)) was 96.7%. It also gave a residual activity (IRAK1 (human)) of 61.1%, a residual activity (PRKD2 (human)) of 86.8% and a residual activity (PTK6 (human)) of 91.1%. It also gave a residual activity (NUAK2 (human)) of 122%, a residual activity (HIPK3 (human)) of 103% and a residual activity (CDK4 CCND3 (human)) of 102%. The residual activity (BTK (human)) was 109%, the residual activity (PRKCD (human)) was 103% and the residual activity (FGFR4 (human)) was 88.6%. For the same compound, the residual activity (MKNK2 (human)) was 57.2%, the residual activity (CDK4 CCND1 (human)) was 106% and the residual activity (MAPK9 (human)) was 97.5%. For the same compound, the residual activity (STK10 (human)) was 88.6%, the residual activity (PRKCB2 (human)) was 97% and the residual activity (MYLK2 (human)) was 99.6%. For the same compound, the residual activity (DCLK2 (human)) was 96.7%, the residual activity (STK3 (human)) was 97.1% and the residual activity (IGF1R (human)) was 100%. For the same compound, the residual activity (CSNK1E (human)) was 96%, the residual activity (ITK (human)) was 97.7% and the residual activity (AKT2 (human)) was 101%. For the same compound, the residual activity (EPHB1 (human)) was 97.5%, the residual activity (MAPKAPK2 (human)) was 102% and the residual activity (TAOK2 (human)) was 95.2%. It also gave a residual activity (CDK7 CCNH MNAT1 (human)) of 92.1%, a residual activity (EPHA8 (human)) of 89.4% and a residual activity (STK24 (human)) of 87.6%.
